The text below walks through data of BindingDB's records for patent US20250313563 (The Broad Institute, 2025).

The structures appear in SMILES notation.

Experiment [1] has as its target Glycogen synthase kinase-3 beta (Homo sapiens, UniProt P49841). The experiment is described as follows: TR-FRET Assay. Summed up:
(§1)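 Enzyme and test compound were first incubated together for 30 minutes in assay buffer. The kinase reaction followed and was stopped with EDTA. The pSer641 signal was read by time-resolved FRET.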

The target in experiment [2] is Glycogen synthase kinase-3 alpha (Homo sapiens, UniProt P49840). Put plainly: TR-FRET Assay. Summed up:
as §1

Chain of Glycogen synthase kinase-3 beta (P49841 whole entry): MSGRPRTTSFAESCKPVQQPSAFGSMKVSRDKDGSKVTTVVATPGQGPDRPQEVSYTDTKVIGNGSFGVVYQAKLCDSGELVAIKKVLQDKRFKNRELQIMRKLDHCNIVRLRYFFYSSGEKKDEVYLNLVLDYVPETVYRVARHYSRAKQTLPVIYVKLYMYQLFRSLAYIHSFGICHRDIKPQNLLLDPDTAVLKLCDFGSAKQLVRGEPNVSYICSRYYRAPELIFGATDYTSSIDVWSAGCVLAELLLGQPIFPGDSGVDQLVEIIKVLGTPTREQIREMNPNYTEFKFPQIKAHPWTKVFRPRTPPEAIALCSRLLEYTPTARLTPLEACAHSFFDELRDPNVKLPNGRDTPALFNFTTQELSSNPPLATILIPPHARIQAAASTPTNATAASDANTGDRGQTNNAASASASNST
Chain of Glycogen synthase kinase-3 alpha (P49840 whole entry): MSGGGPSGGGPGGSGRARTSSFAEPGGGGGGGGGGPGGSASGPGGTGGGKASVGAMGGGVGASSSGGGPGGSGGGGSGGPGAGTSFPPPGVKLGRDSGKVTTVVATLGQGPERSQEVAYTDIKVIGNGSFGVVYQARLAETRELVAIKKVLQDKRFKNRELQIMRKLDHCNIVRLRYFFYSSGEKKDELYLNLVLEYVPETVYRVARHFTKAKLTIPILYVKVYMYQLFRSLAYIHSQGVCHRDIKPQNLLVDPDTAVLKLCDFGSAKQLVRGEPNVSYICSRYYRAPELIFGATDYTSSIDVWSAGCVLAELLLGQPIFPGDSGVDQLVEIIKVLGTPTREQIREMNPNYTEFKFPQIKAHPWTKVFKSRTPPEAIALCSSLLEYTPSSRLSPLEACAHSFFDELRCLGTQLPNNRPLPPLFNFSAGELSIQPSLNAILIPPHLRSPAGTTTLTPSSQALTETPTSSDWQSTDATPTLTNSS

Turning to `CC[C@@]1(c2cccc(C(F)(F)F)c2)C2=CN=NC2NC2=C1C(=O)N(c1ccccc1)C2` (stereo partly drawn) [US20250313563, Compound 945377], the IC50 (as a rule, the concentration at which inhibition is half-maximal) was 1000 to 5000 nM in experiment [1] and 100 to 1000 nM in experiment [2].
The corresponding values for `CC[C@]1(c2cccc(C(F)(F)F)c2)C2=C(N=NC2)NC2=C1C(=O)N[C@H]2C` [US20250313563, Compound 945379] are 1000 to 5000 nM and 100 to 1000 nM.
`CC[C@@]1(c2cccc(C(F)(F)F)c2)C2=C(N=NC2)NC2=C1C(=O)N[C@@H]2C` [US20250313563, Compound 945380]: the IC50 in experiment [1] and in experiment [2] was above 5000 nM in each case.
For `CC[C@@]1(c2cccc(C(F)(F)F)c2)C2=C(N=NC2)NC2=C1C(=O)N[C@H]2C` [US20250313563, Compound 945381], the IC50 in experiment [1] and in experiment [2] was above 5000 nM each time.
Consider `CC[C@]1(c2cccc(C(F)(F)F)c2)C2=CN=NC2NC2=C1C(=O)NC[C@H]2C` (stereo partly drawn) [US20250313563, Compound 945383], for which the half-maximal inhibitory concentration (IC50) in experiment [1] was 100 to 1000 nM; in experiment [2] it was below 100 nM.
Regarding `CC[C@@]1(c2cccc(C(F)(F)F)c2)C2=CN=NC2NC2=C1C(=O)NC[C@H]2C` (stereo partly drawn) [US20250313563, Compound 945385], the IC50 in experiment [1] and in experiment [2] was above 5000 nM throughout.
Take `CC1(C)CC(=O)C2=C(C1)NC1=C(CN=N1)C21CCC(C(=O)N2CCCC2)CC1` (stereo not drawn) [US20250313563, Compound 945394]: the IC50 in experiment [1] fell in the range of 1000 to 5000 nM; in experiment [2], 100 to 1000 nM.
Turning to `CN(C)C(=O)C1CCC2(CC1)C1=C(N=NC1)NC1=C2C(=O)CC(C)(C)C1` (stereo not drawn) [US20250313563, Compound 945395], the IC50 in experiment [1] is 1000 to 5000 nM; in experiment [2], 100 to 1000 nM.
As for `CC1(C)CC(=O)C2=C(C1)NC1=C(CN=N1)C21CCC(C(=O)N2CCCC2)CC1` (stereo not drawn) [US20250313563, Compound 945396], the IC50 in experiment [1] and in experiment [2] was 100 to 1000 nM throughout.
With `CNC(=O)C1CCC2(CC1)C1=C(N=NC1)NC1=C2C(=O)CC(C)(C)C1` (stereo not drawn) [US20250313563, Compound 945397], the IC50 in experiment [1] and in experiment [2] was 100 to 1000 nM each time.
Turning to `CCC1(c2cccc(-c3ccnc(C)c3OC)c2)C2=CN=NC2NC2=C1C(=O)CC(C)(C)C2` (stereo not drawn) [US20250313563, Compound 945458], the IC50 in experiment [1] and in experiment [2] was below 100 nM throughout.
With `CCC1(c2cccc(C3=CN=NC3)c2)C2=C(CC(C)(C)NC2=O)NC2N=NC(C)=C21` (stereo not drawn) [US20250313563, Compound 945459], the IC50 in experiment [1] and in experiment [2] was below 100 nM throughout.
Regarding `CCC1(c2cccc(-c3cn(C)nc3C)c2)C2=C(CC(C)(C)NC2=O)NC2N=NC(C)=C21` (stereo not drawn) [US20250313563, Compound 945460], the IC50 in experiment [1] and in experiment [2] was below 100 nM each time.
`CCC1(c2cccc(-c3ccncc3C)c2)C2=CN=NC2NC2=C1C(=O)NC(C)(C)C2` (stereo not drawn) [US20250313563, Compound 945461]: the IC50 in experiment [1] and in experiment [2] was below 100 nM throughout.
With `CCC1(c2cccc(-c3c(C)nn(C)c3C)c2)C2=CN=NC2NC2=C1C(=O)NC(C)(C)C2` (stereo not drawn) [US20250313563, Compound 945462], the IC50 in experiment [1] and in experiment [2] was below 100 nM each time.
Turning to `CCC1(c2cccc(-c3cc(C)nc(OC(F)F)c3)c2)C2=CN=NC2NC2=C1C(=O)CC(C)(C)C2` (stereo not drawn) [US20250313563, Compound 945463], the IC50 was 1000 to 5000 nM in experiment [1] and 100 to 1000 nM in experiment [2].
Regarding `CCC1(c2cccc(S(=O)(=O)C(C)C)c2)C2=CN=NC2NC2=C1C(=O)NC(C)(C)C2` (stereo not drawn) [US20250313563, Compound 945464], the IC50 in experiment [1] and in experiment [2] was below 100 nM in each case.
`CCC1(c2cccc(S(=O)(=O)C3CC3)c2)C2=CN=NC2NC2=C1C(=O)NC(C)(C)C2` (stereo not drawn) [US20250313563, Compound 945465]: the IC50 in experiment [1] and in experiment [2] was below 100 nM throughout.
For the molecule `CCC1(c2cccc(N(C)C3CC3)c2)C2=CN=NC2NC2=C1C(=O)CC(C)(C)C2` (stereo not drawn) [US20250313563, Compound 945466], the IC50 in experiment [1] is 1000 to 5000 nM; in experiment [2] it was 100 to 1000 nM.
